Experimental data taken from patent US6300320A, “Modulation of c-jun using inhibitors of protein kinase C” (Isis Pharmaceuticals, Inc., priority 1999, dated 2001).

System: c-jun mRNA expression in A549 cells
Test: Phorbol ester (TPA) mediated AP-1 gene expression in A549 cells, Northern blotting
Format: cell-based
Conditions: Homo sapiens, 0.5 h, 100 nM TPA for 30 minutes, no oligo, basal = 100%
Method: The effect of PKC-α reduction on AP-1 transcription factor components was determined. 12-O-tetradecanoylphorbol-13-acetate (TPA) causes a time dependent accumulation of mRNA transcripts of multiple members of AP-1, including c-jun, jun-B and c-fos.
A549 cells were treated with 100 nM ISIS 9606 (SEQ ID NO. 2) or ISIS 13009 (SEQ ID NO. 23) and DOTMA/DOPE as described in Example 13. Cells were then washed and allowed to recover for an additional 68 hours. Cells were then treated with 100 nM TPA for 30 minutes and the expression of either c-fos, jun-B, c-jun or G3PDH mRNA expression was determined by Northern blotting.
Total RNA was extracted from cells and resolved on agarose gels as described in Example 6. These were transferred to nylon membrane (Biorad, Hercules, Calif.) and probed with ^32 P radiolabelled cDNA probes for different PKC isozymes. Additionally, gels were probed with ^32 P radiolabelled cDNA probes for c-fos, c-jun, and junB (American Type Culture Collection, Manassas, Va.). Gels were routinely stripped and reprobed with radiolabelled human […]-3-phosphate dehydrogenase (G3PDH) probe to confirm equal loading. Radioactive bands were quantified using a Phospholmager (Molecular Dynamics, Sunnyvale, Calif.). […] A scrambled control oligonucleotide was without effect on the up-regulation of any AP-1 family member. […]

## CCCCCCCCCCCCCC(=O)O[C@@H]1[C@@H](C)[C@@]2(O)[C@@H](C=C(CO)C[C@]3(O)C(=O)C(C)=C[C@@H]23)[C@@H]2C(C)(C)[C@]12OC(C)=O [TPA, 12-O-tetradecanoylphorbol-13-acetate]
  activity at 0.1 µM: 353%
